From US11712438B2, “Phenyl derivatives as PGE2 receptor modulators” (IDORSIA PHARMACEUTICALS LTD, priority 2017, dated 2023)

Key:
PTGER2 (EP2) = PTGER2 (EP2) (Homo sapiens, UniProt P43116); assay: cell-based
PTRGER4 (EP4) = PTRGER4 (EP4) (Homo sapiens, UniProt P35408); assay: cell-based;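 further: assay plate preincubated 15 min at 37 °C, after which PGE2 was added at 20 nM final and incubation continued 120 min at 37 °C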
Sequence of PTRGER4 (EP4) (P35408 whole entry): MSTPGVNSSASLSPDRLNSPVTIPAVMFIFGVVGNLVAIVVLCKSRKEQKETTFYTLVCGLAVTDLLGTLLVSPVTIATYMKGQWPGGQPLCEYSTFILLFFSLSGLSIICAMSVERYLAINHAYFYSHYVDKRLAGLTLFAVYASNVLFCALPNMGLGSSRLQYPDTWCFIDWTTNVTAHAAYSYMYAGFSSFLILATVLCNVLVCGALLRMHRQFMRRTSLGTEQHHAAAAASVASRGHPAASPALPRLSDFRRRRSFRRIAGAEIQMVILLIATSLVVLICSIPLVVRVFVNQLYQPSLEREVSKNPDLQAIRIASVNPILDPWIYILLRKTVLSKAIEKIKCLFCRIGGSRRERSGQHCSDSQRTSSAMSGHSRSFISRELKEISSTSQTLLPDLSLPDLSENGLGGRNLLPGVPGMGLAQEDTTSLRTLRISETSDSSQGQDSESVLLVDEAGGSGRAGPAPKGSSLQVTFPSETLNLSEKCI
Excerpt: The assay is using the PathHunter™ HEK 293 PTGER2 and PTGER4 b-arrestin cell lines from DiscoverX. The system is based on the Enzyme Fragment Complementation Technology. Two complementing fragments of the b-galactosidase enzyme are expressed within stably transfected cells. The larger portion of b-gal, termed EA for Enzyme Acceptor, is fused to the C-terminus of b-arrestin 2. The smaller fragment, termed ProLink™ tag, is fused to PTGER2 (EP2) or PTRGER4 (EP4) at the C-terminus. Upon activation, b-arrestin is recruited which forces the interaction of ProLink and EA, allowing complementation of the two fragments of b-gal and the formation of a functional enzyme which is capable of hydrolysing the substrate and generating a chemiluminescent signal.
The HEK 293 PTGER4 b-arrestin cells (DiscoverX 93-030-4C1) are detached from culture dishes with a cell dissociation buffer (Invitrogen, 13151-014), and collected in growing medium (GM: DMEM+Glutamax-I (Invitrogen 32430)/10% FCS, 1% Penicilin/streptomycin). 5000 cells per well of a 384 well plate (white with white bottom Greiner 781080) are seeded in 20 ul per well of GM. Plate is incubated at 37° C., 5% CO2 for 24 hours.
Stock solutions of test compounds are made at a concentration of 10 mM in DMSO, and serially diluted in DMSO to concentrations required for inhibition dose response curves (tested concentration range 10 μM-2 nM or 1 μM-0.2 nM).
PGE2 (Cayman 14010, stock solution: 100 uM in DMSO) is used as agonist at 20 nM final concentration, corresponding to EC80.
Five microliters of diluted compounds are transferred into the assay plate. Plate is pre-incubated 15 minutes at 37° C. Then five microliters of PGE2 (final conc. 20 nM) are transferred into the assay plate. Plate is incubated 120 minutes at 37° C.
Twelve μl of reagent are transferred to the assay plate and incubate for 1 hour at room temperature in the dark. Luminescence counts are read on a BMG Fluostar Optima reader according to manufacturers instructions.
For each compound concentration calculate of the percentage of activity compared to DMSO control value as average±STDEV. (each concentration is measured in duplicate)
When compounds were measured multiple times, mean values are given.

Sequence of PTGER2 (EP2) (P43116 whole entry): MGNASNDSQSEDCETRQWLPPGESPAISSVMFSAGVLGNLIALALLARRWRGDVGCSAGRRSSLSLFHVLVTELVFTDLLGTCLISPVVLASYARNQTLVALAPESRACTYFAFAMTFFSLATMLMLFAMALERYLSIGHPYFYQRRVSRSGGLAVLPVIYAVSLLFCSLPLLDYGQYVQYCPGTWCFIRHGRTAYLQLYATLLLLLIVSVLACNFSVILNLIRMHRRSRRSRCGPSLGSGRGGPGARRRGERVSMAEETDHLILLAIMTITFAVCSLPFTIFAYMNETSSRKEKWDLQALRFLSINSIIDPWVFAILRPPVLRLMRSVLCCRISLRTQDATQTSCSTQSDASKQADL

IC50 (PTGER2 (EP2)) [nM]	IC50 (PTRGER4 (EP4)) [nM]	Structure (SMILES)
424	746	Fc1cc(Br)cc(F)c1CCNc1cc(-c2ccc3cc[nH]c3c2)ncn1 [Example 170, [2-(4-Bromo-2,6-difluoro-phenyl)-ethyl]-[6-(1H-indol-6yl)-pyrimidin-4-yl]amine]
680	582	CCOc1cc(-c2cc(NCCc3c(F)cc(Br)cc3F)ncn2)ccc1C1(C(=O)O)CC1 [Example 171, 1-(4-{6-[2-(4-Bromo-2,6-difluoro-phenyl)-ethylamino]-pyrimidin-4-yl}-2-ethoxy-phenyl)-cyclopropanecarboxylic acid]
440	401	CCCc1cc(-c2cc(NCCc3c(F)cc(Br)cc3F)ncn2)ccc1C1(C(=O)O)CC1 [Example 172, 1-(4-{6-[2-(4-Bromo-2,6-difluoro-phenyl)-ethylamino]-pyrimidin-4-yl}-2-propyl-phenyl)-cyclopropanecarboxylic acid]
258	461	CCOc1c(CC(=O)O)ccc(-c2cc(NCCc3c(F)cc(Br)cc3F)ncn2)c1F [Example 175, (4-{6-[2-(4-Bromo-2,6-difluoro-phenyl)-ethylamino]-pyrimidin-4-yl}-2-ethoxy-3-fluoro-phenyl)-acetic acid]
126	343	CCOc1cc(-c2cc(NCCc3c(F)cccc3OC)ncn2)sc1C(=O)O [Example 177, 3-Ethoxy-5-{6-[2-(2-fluoro-6-methoxy-phenyl)-ethylamino]-pyrimidin-4-yl}-thiophene-2-carboxylic acid]
140	315	CCOc1cc(-c2cc(NCCc3cc(F)c(F)cc3OC)ncn2)sc1C(=O)O [Example 179, 5-{6-[2-(4,5-Difluoro-2-methoxy-phenyl)-ethylamino]-pyrimidin-4-yl}-3-ethoxy-thiophene-2-carboxylic acid]
163	208	CCOc1cc(-c2cc(NCCc3c(F)cc(Br)cc3F)ncn2)ccc1NCC(=O)O [Example 182, (4-{6-[2-(4-Bromo-2,6-difluoro-phenyl)-ethylamino]-pyrimidin-4-yl}-2-ethoxy-phenylamino)-acetic acid]
695	661	CCOc1cc(-c2cc(NCCc3cc(F)c(C(F)F)cc3OC)ncn2)ccc1C(=O)O [Example 183, 4-{6-[2-(4-Difluoromethyl-5-fluoro-2-methoxy-phenyl)-ethylamino]-pyrimidin-4-yl}-2-ethoxy-benzoic acid]
295	338	CCCc1cc(-c2cc(NCCc3cc(C)c(C)cc3OC)ncn2)ccc1C(=O)O [Example 189]
486	181	CCOc1cc(-c2cc(NCCc3cc(C)c(C)cc3OC)ncn2)ccc1CC(=O)O [Example 190, (2-Ethoxy-4-{6-[2-(2-methoxy-4,5-dimethyl-phenyl)-ethylamino]-pyrimidin-4-yl}-phenyl)-acetic acid]
322	145	COc1cc(C)c(C)cc1CCNc1cc(-c2ccc(CC(=O)O)c(SC)c2)ncn1 [Example 191, (4-{6-[2-(2-Methoxy-4,5-dimethyl-phenyl)-ethylamino]-pyrimidin-4-yl}-2-methylsulfanyl-phenyl)-acetic acid]
380	193	CCCc1cc(-c2cc(NCCc3cc(C)c(C)cc3OC)ncn2)ccc1CC(=O)O [Example 192, (4-{6-[2-(2-Methoxy-4,5-dimethyl-phenyl)-ethylamino]-pyrimidin-4-yl}-2-propyl-phenyl)-acetic acid]
797	159	CCOc1cc(-c2cc(NCCc3cc(C)c(C)cc3OC)ncn2)cc(F)c1CC(=O)O [Example 193, (2-Ethoxy-6-fluoro-4-{6-[2-(2-methoxy-4,5-dimethyl-phenyl)-ethylamino]-pyrimidin-4-yl}-phenyl)-acetic acid]
548	207	CCCOc1cc(-c2cc(NCCc3cc(C)c(C)cc3OC)ncn2)ccc1CC(=O)O [Example 194, (4-{6-[2-(2-Methoxy-4,5-dimethyl-phenyl)-ethylamino]-pyrimidin-4-yl}-2-propoxy-phenyl)-acetic acid]
837	269	CCOc1cc(-c2cc(NCCc3cc(Cl)c(C(F)(F)F)cc3OC)ncn2)ccc1C(=O)O [Example 195, 4-{6-[2-(5-Chloro-2-methoxy-4-trifluoromethyl-phenyl)-ethylamino]-pyrimidin-4-yl}-2-ethoxy-benzoic acid]
539	163	CCCc1cc(-c2cc(NCCc3cc(Cl)c(C(F)(F)F)cc3OC)ncn2)ccc1C(=O)O [Example 197, 4-{6-[2-(5-Chloro-2-methoxy-4-trifluoromethyl-phenyl)-ethylamino]-pyrimidin-4-yl}-2-propyl-benzoic acid]

IC50 (PTGER2 (EP2)) [nM]	IC50 (PTRGER4 (EP4)) [nM]	Structure (SMILES)
163	283	CCOc1cc(-c2cc(NCCc3cc(C)c(C(F)F)cc3OC)ncn2)ccc1C(=O)O [Example 199, 4-{6-[2-(4-Difluoromethyl-2-methoxy-5-methyl-phenyl)-ethylamino]-pyrimidin-4-yl}-2-ethoxy-benzoic acid]
140	482	CCCc1cc(-c2cc(NCCc3c(C)cc(C)cc3OC)ncn2)ccc1C(=O)O [Example 201, 4-{6-[2-(2-Methoxy-4,6-dimethyl-phenyl)-ethylamino]-pyrimidin-4-yl}-2-propyl-benzoic acid]
597	365	CCOc1cc(-c2cc(NCCc3c(C)cc(C)cc3OC)ncn2)ccc1CC(=O)O [Example 202, (2-Ethoxy-4-{6-[2-(2-methoxy-4,6-dimethyl-phenyl)-ethylamino]-pyrimidin-4-yl}-phenyl)-acetic acid]
433	699	CCCOc1cc(-c2cc(NCCc3c(C)cc(C)cc3OC)ncn2)ccc1CC(=O)O [Example 204, (4-{6-[2-(2-Methoxy-4,6-dimethyl-phenyl)-ethylamino]-pyrimidin-4-yl}-2-propoxy-phenyl)-acetic acid]
966	681	CCOc1cc(-c2cc(NCCc3ccc(C(F)(F)F)cc3OC)ncn2)ccc1C(=O)O [Example 205, 2-Ethoxy-4-{6-[2-(2-methoxy-4-trifluoromethyl-phenyl)-ethylamino]-pyrimidin-4-yl}-benzoic acid]
315	372	COc1cc(C(F)(F)F)ccc1CCNc1cc(-c2ccc(C(=O)O)c(SC)c2)ncn1 [Example 206, 4-{6-[2-(2-Methoxy-4-trifluoromethyl-phenyl)-ethylamino]-pyrimidin-4-yl}-2-methylsulfanyl-benzoic acid]
721	491	CCCc1cc(-c2cc(NCCc3ccc(C(F)(F)F)cc3OC)ncn2)ccc1C(=O)O [Example 207, 4-{6-[2-(2-Methoxy-4-trifluoromethyl-phenyl)-ethylamino]-pyrimidin-4-yl}-2-propyl-benzoic acid]
184	62	CCOc1cc(C(F)(F)F)ccc1CCNc1cc(-c2ccc(CC(=O)O)c(OCC)c2)ncn1 [Example 214, (2-Ethoxy-4-{6-[2-(2-ethoxy-4-trifluoromethyl-phenyl)-ethylamino]-pyrimidin-4-yl}-phenyl)-acetic acid]
690	917	CSc1cc(-c2cc(NCCc3ccc(C(F)(F)F)cc3OC(F)F)ncn2)ccc1C(=O)O [Example 218, 4-{6-[2-(2-Difluoromethoxy-4-trifluoromethyl-phenyl)-ethylamino]-pyrimidin-4-yl}-2-methylsulfanyl-benzoic acid]
401	839	CCOc1cc(-c2cc(NCCc3ccc(OC(F)F)cc3OC)ncn2)ccc1C(=O)O [Example 220, 4-{6-[2-(4-Difluoromethoxy-2-methoxy-phenyl)-ethylamino]-pyrimidin-4-yl}-2-ethoxy-benzoic acid]
92	268	COc1cc(OC(F)F)ccc1CCNc1cc(-c2ccc(C(=O)O)c(SC)c2)ncn1 [Example 221, 4-{6-[2-(4-Difluoromethoxy-2-methoxy-phenyl)-ethylamino]-pyrimidin-4-yl}-2-methylsulfanyl-benzoic acid]
231	286	CCCc1cc(-c2cc(NCCc3ccc(OC(F)F)cc3OC)ncn2)ccc1C(=O)O [Example 222, 4-{6-[2-(4-Difluoromethoxy-2-methoxy-phenyl)-ethylamino]-pyrimidin-4-yl}-2-propyl-benzoic acid]
37	23	CCOc1cc(-c2cc(NCCc3ccc(OC(F)F)cc3OC)ncn2)sc1C(=O)O [Example 224, 5-{6-[2-(4-Difluoromethoxy-2-methoxy-phenyl)-ethylamino]-pyrimidin-4-yl}-3-ethoxy-thiophene-2-carboxylic acid]
907	273	CCOc1cc(-c2cc(NCCc3c(F)cc(C(F)(F)F)cc3OC)ncn2)ccc1C(=O)O [Example 226, 2-Ethoxy-4-{6-[2-(2-fluoro-6-methoxy-4-trifluoromethyl-phenyl)-ethylamino]-pyrimidin-4-yl}-benzoic acid]
502	777	CCOc1cc(-c2cc(NCCc3c(F)cc(OC)cc3F)ncn2)ccc1C(=O)O [Example 228, 4-{6-[2-(2,6-Difluoro-4-methoxy-phenyl)-ethylamino]-pyrimidin-4-yl}-2-ethoxy-benzoic acid]
81	273	COc1cc(F)c(CCNc2cc(-c3ccc(C(=O)O)c(SC)c3)ncn2)c(F)c1 [Example 229, 4-{6-[2-(2,6-Difluoro-4-methoxy-phenyl)-ethylamino]-pyrimidin-4-yl}-2-methylsulfanyl-benzoic acid]

Structure (SMILES)	IC50 (PTGER2 (EP2)) [nM]	IC50 (PTRGER4 (EP4)) [nM]
COc1ccc(SC)cc1CCNc1cc(-c2ccc(C(=O)O)c(OC3CCC3)c2)ncn1 [Example 173, 2-Cyclobutoxy-4-{6-[2-(2-methoxy-5-methylsulfanyl-phenyl)-ethylamino]pyrimidin-4-yl}-benzoic acid]	107	519
COc1cc(C)c(C)cc1CCNc1cc(-c2ccc(C(=O)O)c(OC3CCC3)c2)ncn1 [Example 188, 2-Cyclobutoxy-4-{6-[2-(2-methoxy-4,5-dimethyl-phenyl)-ethylamino]-pyrimidin-4-yl}-benzoic acid]	179	117
